The subject of one assay is MDCK. As to the kind of experiment: Antimigratory activity against dog MDCK cells assessed as inhibition of cell migration preincubated for 0.5 hrs followed by wounding and measured after 24 hrs by wound closure assay. Particulars: Canis lupus familiaris. It is filed as functional, cell-based.
Assay [1] addresses T1, Galectin-1 (Homo sapiens, UniProt P09382). As to the kind of experiment: Binding affinity to Gal-1 (unknown origin) by fluorescence spectroscopy.
Assay [2] addresses C-type lectin domain family 4 member K (Homo sapiens, UniProt Q9UJ71). As to the kind of experiment: Inhibition of human Langerin overexpressed in human Raji cells incubated for 30 mins by flow cytometry. Type of assay: cell-based. Background: In flow cytometry, cells or beads pass a laser one at a time.
The target in assay [3] is T1, Galectin-1. As to the kind of experiment: Binding affinity to human Gal-1 assessed as decrease in Gal-1 levels by ELISA. For orientation: In an ELISA, binding on a coated surface is turned into a signal by an enzyme label.
A further assay has as its system PC-3. As to the kind of experiment: Antiproliferative activity against human PC-3 cells assessed as reduction in cell proliferation incubated for 72 hrs by SRB assay. Type of assay: functional, cell-based. The conditions noted are these: PC-3, 72 h. (Sulforhodamine B stains cellular protein and so reports cell mass.)
A further assay deals with DU-145. As to the kind of experiment: Antiproliferative activity against human DU-145 cells assessed as reduction in cell proliferation incubated for 72 hrs by SRB assay. It is filed as functional, cell-based. The conditions noted are these: DU-145, 72 h.
In another assay the test system is NCI-H460. As to the kind of experiment: Anticancer activity against human NCI-H460 cells assessed as reduction in cell viability incubated for 48 hrs by MTT assay. Type of assay: functional, cell-based. The conditions noted are these: NCI-H460, 48 h.
A further assay relates to MCF7. As to the kind of experiment: Anticancer activity against human MCF7 cells assessed as reduction in cell viability incubated for 48 hrs by MTT assay. Type of assay: functional, cell-based. Particulars: MCF7, 48 h.
For a further assay, the system named is A549. As to the kind of experiment: Anticancer activity against human A549 cells assessed as reduction in cell viability incubated for 48 hrs by MTT assay. It is filed as functional, cell-based. Particulars: A549, 48 h.
A short description of assay [4]: Anticancer activity against human MDA-MB-231 cells assessed as reduction in cell viability incubated for 48 hrs by MTT assay. It is filed as functional, cell-based. Particulars: MDA-MB-23, 48 h.
A further assay has as its system HUVEC. As to the kind of experiment: Antiproliferative activity against human HUVEC cells assessed as inhibition of basic fibroblast growth factor stimulated stimulated cell proliferation incubated for 72 hrs by CCK-8 assay. Type of assay: functional, cell-based.
The nature of assay [5]: Anti-angiogenic activity in human MA148 cells xenografted in athymic nude mouse assesed as tumor growth inhibition at 10 mg/kg, sc weekly once for 28 days. Particulars: MA148, 672 h, time 28 day, read-out: TGI. It is filed as functional.
For a further assay, the system named is SK-OV-3. As to the kind of experiment: Anticancer activity against human SK-OV-3 cells assessed as reduction in cell viability and measured after 72 hrs by CellTiter-Glo reagent based assay. Type of assay: functional. The conditions noted are these: SK-OV-3, 72 h.
The next assay deals with MG-63. As to the kind of experiment: Anticancer activity against human MG-63 cells assessed as reduction in cell viability incubated for 48 hrs by MTT assay. The conditions noted are these: MG-63, 48 h. It is filed as functional, cell-based.
Assay [6] has as its target T1, Galectin-1. As to the kind of experiment: Binding affinity to Gal-1 (unknown origin) incubated for 30 mins by RP-HPLC analysis.
The target of a further assay is T2, P-selectin (Homo sapiens, UniProt P16109).
T2 sequence (P16109 whole entry): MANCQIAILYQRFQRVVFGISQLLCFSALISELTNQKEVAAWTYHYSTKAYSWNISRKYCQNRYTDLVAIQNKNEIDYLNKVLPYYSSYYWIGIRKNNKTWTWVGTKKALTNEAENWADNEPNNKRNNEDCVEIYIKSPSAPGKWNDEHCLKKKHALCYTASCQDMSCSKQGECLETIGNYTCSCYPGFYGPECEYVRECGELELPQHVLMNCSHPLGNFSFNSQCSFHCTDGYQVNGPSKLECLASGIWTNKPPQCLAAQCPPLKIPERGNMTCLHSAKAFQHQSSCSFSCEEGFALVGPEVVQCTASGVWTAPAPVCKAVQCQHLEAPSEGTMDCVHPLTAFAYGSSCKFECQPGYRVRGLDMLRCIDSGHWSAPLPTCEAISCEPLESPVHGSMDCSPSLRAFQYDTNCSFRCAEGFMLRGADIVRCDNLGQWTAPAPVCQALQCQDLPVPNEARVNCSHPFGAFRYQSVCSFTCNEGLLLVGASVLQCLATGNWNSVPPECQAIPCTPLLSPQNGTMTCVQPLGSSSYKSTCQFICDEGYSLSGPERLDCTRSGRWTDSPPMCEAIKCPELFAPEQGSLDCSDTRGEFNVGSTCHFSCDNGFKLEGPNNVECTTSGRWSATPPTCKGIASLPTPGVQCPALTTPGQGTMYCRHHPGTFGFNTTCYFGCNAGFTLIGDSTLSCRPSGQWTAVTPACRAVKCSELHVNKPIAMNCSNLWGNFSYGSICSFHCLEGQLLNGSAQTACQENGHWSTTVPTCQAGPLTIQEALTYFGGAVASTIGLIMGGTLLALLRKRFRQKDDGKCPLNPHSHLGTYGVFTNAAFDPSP
As to the kind of experiment: Inhibition of P-selectin (unknown origin) incubated for 30 mins by ELISA.

Starred links: 1 amine or outer side, 2 acyl side, 3 side chain; linkers in the order of their positions; H or OH if unused. Non-standard residues stand in square brackets, D forms with d. Residues, ends and D or L forms follow the SMILES beside them. X2 = O=C(CCc1cccc2c1Cc1c(CCN[*:1])cccc1-2)[*:2]; X3 = O=C(CCc1cccc2c1oc1c(CCN[*:1])cccc12)[*:2]; Nva = CCC[C@H](N)C(=O)O

C-type lectin domain family 4 member K, sequence (Q9UJ71 whole entry, the tested form may be a part): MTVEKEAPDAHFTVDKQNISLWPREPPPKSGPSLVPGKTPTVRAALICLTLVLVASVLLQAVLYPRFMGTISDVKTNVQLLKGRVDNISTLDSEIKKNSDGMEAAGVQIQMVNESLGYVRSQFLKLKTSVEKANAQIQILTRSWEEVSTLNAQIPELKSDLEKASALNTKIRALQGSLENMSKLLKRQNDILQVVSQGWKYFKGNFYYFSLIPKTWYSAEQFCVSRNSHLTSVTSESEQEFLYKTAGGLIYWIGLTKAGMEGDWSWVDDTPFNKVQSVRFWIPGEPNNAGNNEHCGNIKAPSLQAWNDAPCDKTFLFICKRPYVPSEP
T1 sequence (P09382 whole entry, the tested form may be a part): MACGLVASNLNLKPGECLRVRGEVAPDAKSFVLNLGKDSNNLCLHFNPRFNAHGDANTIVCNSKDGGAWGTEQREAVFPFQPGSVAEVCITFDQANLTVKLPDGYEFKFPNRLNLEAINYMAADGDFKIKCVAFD

`COc1c(C)c(OC)c2c(c1OCc1ccccc1)[C@H](COCc1ccccc1)N1[C@@H]3[C@H]4[C@H](C[C@H]([C@@H]1C#N)N4C)C(=O)N[C@H]23`: in the assay with MDCK, the concentration for half-maximal inhibition (IC50) was found to be 32.5 µM.

`COc1ccc2c(c1)c(C/C=C(/O)c1cc3ccccc3oc1=O)cn2Cc1cccc(Cl)c1`: the Ka on Galectin-1 [1] is 6.6 10^5/M. In assay [2], `CCOC(=O)C1CCNC(=O)C1O` (centres undefined) registered a half-inhibitory concentration (IC50) of 1190 µM. On the same count and under the same terms, as for `Cc1n[nH]c(C)c1Cc1ccc(O)cc1`, the figure is 1030 µM. As for `CCOC(=O)C1CCN(Cc2cc(=O)oc3cc(OCc4ccc([N+](=O)[O-])cc4)ccc23)CC1`, the concentration for half-maximal inhibition (IC50) amounted to 100 µM at Galectin-1 [3], 7.45 µM in the assay on PC-3 and 8.95 µM with DU-145. Consider `CCOC(=O)c1sc(=O)[nH]c1C(F)(F)F`, for which, in assay [2], the IC50 came to 1060 µM. For the compound `O=C(O)c1cccnc1Nc1cccc(C(F)(F)F)c1` [NIFLUMIC ACID], in assay [2], the IC50 was determined as 590 µM. For `Oc1cccc(-n2cc(COc3ccc(-c4nc5cc(Cl)ccc5n4Cc4ccccc4)cc3)nn2)c1`, the IC50 worked out at 0.99 µM with NCI-H460, 1.3 µM in the assay with MCF7, 0.63 µM in the assay on A549 and 0.94 µM in assay [4]. `CC[C@H](C)[C@H](NC(=O)[C@H](C)NC(=O)CCc1cccc2c1oc1c(CCNC(=O)[C@H](CC(C)C)NC(=O)[C@H](CCCCN)NC(=O)[C@H](CCSC)NC(=O)[C@H](CCC(N)=O)NC(=O)[C@@H](NC(=O)[C@@H](N)CO)C(C)C)cccc12)C(=O)N[C@H](C(=O)N[C@@H](CCCCN)C(=O)N[C@@H](CC(C)C)C(=O)N[C@@H](CC(N)=O)C(=O)N[C@@H](C)C(=O)O)C(C)C` (H-SVQMKL[X3]AIVKLNA-OH): the IC50 with HUVEC was 5 µM. In the case of H-ANIKLSVQMKLFKRHLKWKIIVKLNDGRELSLD-OH, the inhibition in vivo at 10 mg/kg in [5] was found to be 80%. On to `CC(=O)OCCN(CCOC(C)=O)c1ccc(-c2nc3cc(C(CC(N)=O)NC(=O)C(N)Cc4ccc(Cl)c(Cl)c4)ccc3n2Cc2ccc(F)c(F)c2)cc1` (centres undefined), for which the IC50 in the assay on SK-OV-3 came to 15.7 µM. Take `CC1CN(Cc2cc(=O)oc3cc(OCc4cn(Cc5ccc(Cl)cc5Cl)nn4)ccc23)CC(C)O1` (centres undefined): the IC50 in the assay with MG-63 was 0.8 µM. At Galectin-1 [6], `O=C(Nc1ccc(O)cc1)c1ccc(-c2nc3cc(Cl)ccc3n2Cc2ccccc2)cc1` yielded an Activity of 85.4%. Further, in the assay on MCF7, the concentration for half-maximal inhibition (IC50) was 7.01 µM. Turning to `CCN1CCN(CC(C)c2ccc(F)cc2)CC1` (centres undefined), in [2], the midpoint of inhibition, the IC50, lay at 1150 µM.

With `CCC[C@H](NC(=O)[C@H](CCC(N)=O)NC(=O)[C@@H](NC(=O)[C@@H](N)CO)C(C)C)C(=O)N[C@@H](CCCCN)C(=O)N[C@@H](CC(C)C)C(=O)NCCc1cccc2c1Cc1c(CCC(=O)N[C@H](C(=O)N[C@H](C(=O)N[C@H](C(=O)N[C@@H](CCCCN)C(=O)N[C@@H](CC(C)C)C(=O)N[C@@H](CC(N)=O)C(=O)N[C@@H](C)C(=O)O)C(C)C)[C@@H](C)CC)[C@@H](C)CC)cccc1-2` (H-SVQ[Nva]KL[X2]IIVKLNA-OH), the IC50 in the assay on HUVEC came out at 10 µM.

On to `COc1cccc2c1[C@H](CO)N1[C@@H](C#N)[C@H]3C[C@@H](C(=O)O)[C@H]([C@@H]1C2)N3C`, for which the IC50 in the assay on MDCK came out at 140 µM. `CCCCCCCCCCCCCCCCNC(=O)/C=C/c1ccc(-c2[nH]c(-c3ccc(C4=NNC(C=O)C4)cc3)nc2-c2ccc(/C=C/C(=O)O)cc2)cc1` (centres undefined) registered an IC50 against P-selectin of 0.3 µM. In the case of `CCOC(=O)c1cc(C(F)(F)F)n[nH]1`, in assay [2], the IC50 stood at 580 µM.

A word on the IC50: it is the midpoint of a concentration-inhibition curve.
